The results in this text go back to patent US20230257415A1, “COMPOUNDS FOR TREATING CNS DISORDERS” (SAGE THERAPEUTICS, INC., priority 2019, published 2023).

Some results are limits rather than exact numbers.

The experiment has as its target GABAA receptor. The experiment is described as follows: [35S]-TBPS binding assay, rat brain cortical membranes, in the presence of GABA. The settings on record: inhibition of 3 nM [35S]-TBPS binding, 5 mM GABA, 90 min, room temp. How it is done: [35S]-t-Butylbicyclophosphorothionate (TBPS) binding assays using rat brain cortical membranes in the presence of 5 mM GABA has been described (Gee et al, J. Pharmacol. Exp. Ther. 1987, 241, 346-353; Hawkinson et al, Mol. Pharmacol. 1994, 46, 977-985; Lewin, A.H et al., Mol. Pharmacol. 1989, 35, 189-194).
Briefly, cortices are rapidly removed following decapitation of carbon dioxide-anesthetized Sprague-Dawley rats (200-250 g). The cortices are homogenized in 10 volumes of ice-cold 0.32 M sucrose using a glass/teflon homogenizer and centrifuged at 1500 x g for 10 min at 4° C. The resultant supernatants are centrifuged at 10,000 x g for 20 min at 4° C. to obtain the P2 pellets. The P2 pellets are resuspended in 200 mM NaCl/50 mM Na-K phosphate pH 7.4 buffer and centrifuged at 10,000 x g for 10 min at 4° C. This washing procedure is repeated twice and the pellets are resuspended in 10 volumes of buffer. Aliquots ([…]) of the membrane suspensions are incubated with 3 nM [^35S]-TBPS and […] aliquots of test drug dissolved in dimethyl sulfoxide (DMSO) (final 0.5%) in the presence of 5 mM GABA. The incubation is brought to a final volume of 1.0 mL with buffer. […] Following a 90 min incubation at room temp, the assays are terminated by filtration through glass fiber filters (Schleicher and Schuell No. 32) using a cell harvester (Brandel) and rinsed three times with ice-cold buffer. Filter bound radioactivity is measured by liquid scintillation spectrometry. Non-linear curve fitting of the overall data for each drug averaged for each concentration is done using Prism (GraphPad). […] The concentration of test compound producing 50% inhibition (IC50) of specific binding and the maximal extent of inhibition (Imax) are determined for the individual experiments with the same model used for the overall data and then the means ± SEM.s of the individual experiments are calculated.
Various compounds are or can be screened to determine their potential as modulators of [^35S]-TBPS binding in vitro. These assays are or can be performed in accordance with the above.
One may read the IC50 as the concentration that gives 50% inhibition. In the case of `C[C@H](Nc1ccc(C#N)cc1)[C@H]1CCC[C@H]2[C@@H]3CC[C@@H]4C[C@](C)(O)CC[C@@H]4C3CC[C@]12C` (stereo partly drawn) [Example 50, 4-(((1S)-1-((1S,4aS,4bR,6aR,8R,10aS,12aS)-8-hydroxy-8,12a-dimethyloctadecahydrochrysen-1-yl)ethyl)amino)benzonitrile], the IC50 is less than 100 nM.
Under `C[C@@]1(O)CC[C@H]2[C@H](CC[C@@H]3[C@@H]2CC[C@]2(C)[C@@H](CNC(=O)c4ccccn4)CCC[C@@H]32)C1` [Example 29, N-(((1S,4aS,4bR,6aR,8R,10aS,10bR,12aS)-8-hydroxy-8,12a-dimethyloctadecahydrochrysen-1-yl)methyl)picolinamide] stands 100 to 1000 nM; under `CCOC[C@@]1(O)CC[C@@H]2C3CC[C@]4(C)[C@@H]([C@@H](C)NC(=O)c5ccc(F)cc5F)CCC[C@H]4[C@@H]3CC[C@@H]2C1` (stereo partly drawn) [Example 52, N-((1R)-1-((1S,4aS,4bR,6aR,8R,10aS,12aS)-8-(ethoxymethyl)-8-hydroxy-12a-methyloctadecahydrochrysen-1-yl)ethyl)-2,4-difluorobenzamide], 100 to 1000 nM; under `COC[C@@]1(O)CC[C@@H]2C3CC[C@]4(C)[C@@H]([C@@H](C)NC(=O)c5ccc(C#N)cc5)CCC[C@H]4[C@@H]3CC[C@@H]2C1` (stereo partly drawn) [Example 46, 4-cyano-N-((1R)-1-((1S,4aS,4bR,6aR,8R,10aS,12aS)-8-hydroxy-8-(methoxymethyl)-12a-methyloctadecahydrochrysen-1-yl)ethyl)benzamide], 100 to 1000 nM.
Under `C[C@@H](Nc1cccc(C#N)c1)[C@H]1CCC[C@H]2[C@@H]3CC[C@@H]4C[C@](C)(O)CC[C@@H]4C3CC[C@]12C` (stereo partly drawn) [Example 49, 3-(((1R)-1-((1S,4aS,4bR,6aR,8R,10aS,12aS)-8-hydroxy-8,12a-dimethyloctadecahydrochrysen-1-yl)ethyl)amino)benzonitrile] stands less than 100 nM; under `CCC[C@@]1(O)CC[C@H]2[C@@H](CC[C@@H]3[C@@H]2CC[C@]2(C)[C@@H]([C@@H](C)Cn4nnnc4C)CCC[C@@H]32)C1` [Example 8, (2R,4aS,4bR,6aS,7R,10aS,10bR,12aS)-6a-methyl-7-((R)-1-(5-methyl-1H-tetrazol-1-yl)propan-2-yl)-2-propyloctadecahydrochrysen-2-ol], 100 to 1000 nM.
With `CC[C@]12CC[C@@](C)(O)C[C@H]1CC[C@H]1[C@@H]3CCC[C@H](CN(C)S(=O)(=O)c4ccccc4)[C@@]3(C)CC[C@@H]12` [Example 38, N-(((1S,4aS,4bS,6aR,8R,10aS,10bS,12aS)-10a-ethyl-8-hydroxy-8,12a-dimethyloctadecahydrochrysen-1-yl)methyl)-N-methylbenzenesulfonamide] the figure was less than 100 nM.
On to `CC[C@]12CC[C@@](C)(O)C[C@H]1CC[C@H]1[C@@H]3CCC[C@H](CNC(=O)c4ccccc4)[C@@]3(C)CC[C@@H]12` [Example 36, N-(((1S,4aS,4bS,6aR,8R,10aS,10bS,12aS)-10a-ethyl-8-hydroxy-8,12a-dimethyloctadecahydrochrysen-1-yl)methyl)benzamide], for which the IC50 is 100 to 1000 nM.
Under `CCC[C@@]1(O)CC[C@H]2[C@@H](CC[C@@H]3[C@@H]2CC[C@]2(C)[C@@H]([C@H](C)Cn4nnnc4C)CCC[C@@H]32)C1` [Example 7, (2R,4aS,4bR,6aS,7R,10aS,10bR,12aS)-6a-methyl-7-((S)-1-(5-methyl-1H-tetrazol-1-yl)propan-2-yl)-2-propyloctadecahydrochrysen-2-ol] stands not below 1000 nM; under `C[C@H](NC(=O)c1ccc(C#N)cc1)[C@H]1CCC[C@H]2[C@@H]3CC[C@@H]4C[C@](C)(O)CC[C@@H]4C3CC[C@]12C` (stereo partly drawn) [Example 42, 4-cyano-N-((1S)-1-((1S,4aS,4bR,6aR,8R,10aS,12aS)-8-hydroxy-8,12a-dimethyloctadecahydrochrysen-1-yl)ethyl)benzamide], 100 to 1000 nM; under `CCOC[C@@]1(O)CC[C@@H]2C3CC[C@]4(C)[C@@H]([C@H](C)NC(=O)c5ccc(C#N)cc5F)CCC[C@H]4[C@@H]3CC[C@@H]2C1` (stereo partly drawn) [Example 55], 100 to 1000 nM.
Under `COC[C@@]1(O)CC[C@@H]2C3CC[C@]4(C)[C@@H]([C@H](C)NC(=O)c5ccc(F)cc5)CCC[C@H]4[C@@H]3CC[C@@H]2C1` (stereo partly drawn) [Example 45, 4-fluoro-N-((1S)-1-((1S,4aS,4bR,6aR,8R,10aS,12aS)-8-hydroxy-8-(methoxymethyl)-12a-methyloctadecahydrochrysen-1-yl)ethyl)benzamide] stands 100 to 1000 nM.
For the compound `C[C@@]1(O)CC[C@H]2[C@H](CC[C@@H]3[C@@H]2CC[C@]2(C)[C@@H](CNC(=O)c4ccccc4F)CCC[C@@H]32)C1` [Example 30, 2-fluoro-N-(((1S,4aS,4bR,6aR,8R,10aS,10bR,12aS)-8-hydroxy-8,12a-dimethyloctadecahydrochrysen-1-yl)methyl)benzamide], the IC50 is less than 100 nM.
On to `C[C@H](Cn1cc(C#N)cn1)[C@H]1CC[C@H]2[C@@H]3CC[C@@H]4C[C@](C)(O)CCC[C@@H]4[C@H]3CC[C@]12C` [Example 22, 1-((S)-2-((1R,3aS,3bR,5aR,7R,10aS,10bR,12aS)-7-hydroxy-7,12a-dimethyloctadecahydrocyclohepta[a]cyclopenta[f]naphthalen-1-yl)propyl)-1H-pyrazole-4-carbonitrile], for which the IC50 is less than 100 nM.
With `C[C@H](Cn1cc(C#N)cn1)[C@H]1CC[C@H]2[C@@H]3CC[C@H]4CC[C@](C)(O)CC[C@]4(C)[C@H]3CC[C@]12C` [Example 20, 1-((S)-2-((1R,3aS,3bR,5aS,8S,10aS,10bS,12aS)-8-hydroxy-8,10a,12a-trimethyloctadecahydrocyclohepta[a]cyclopenta[f]naphthalen-1-yl)propyl)-1H-pyrazole-4-carbonitrile] the figure was less than 100 nM; with `C[C@@H](Nc1ccc(C#N)cc1)[C@H]1CCC[C@H]2[C@@H]3CC[C@@H]4C[C@](C)(O)CC[C@@H]4C3CC[C@]12C` (stereo partly drawn) [Example 51, 4-(((1R)-1-((1S,4aS,4bR,6aR,8R,10aS,12aS)-8-hydroxy-8,12a-dimethyloctadecahydrochrysen-1-yl)ethyl)amino)benzonitrile], less than 100 nM; with `C[C@@H](NC(=O)c1ccc(C#N)cc1)[C@H]1CCC[C@H]2[C@@H]3CC[C@@H]4C[C@](C)(O)CC[C@@H]4C3CC[C@]12C` (stereo partly drawn) [Example 43, 4-cyano-N-((1R)-1-((1S,4aS,4bR,6aR,8R,10aS,12aS)-8-hydroxy-8,12a-dimethyloctadecahydrochrysen-1-yl)ethyl)benzamide], 100 to 1000 nM.
With `C[C@@H](Cn1cc(C#N)cn1)[C@H]1CC[C@H]2[C@@H]3CC=C4CC[C@](C)(O)CC[C@]4(C)[C@H]3CC[C@]12C` [Example 17, 1-((R)-2-((1R,3aS,3bS,8S,10aR,10bS,12aS)-8-hydroxy-8,10a,12a-trimethyl-1,2,3,3a,3b,4,6,7,8,9,10,10a,10b,11,12,12a-hexadecahydrocyclohepta[a]cyclopenta[f]naphthalen-1-yl)propyl)-1H-pyrazole-4-carbonitrile], the IC50 is less than 100 nM.
With `C[C@@]1(O)CC[C@H]2[C@H](CC[C@@H]3[C@@H]2CC[C@]2(C)[C@@H](CNC(=O)c4cccc(C#N)c4)CCC[C@@H]32)C1` [Example 31, 3-cyano-N-(((1S,4aS,4bR,6aR,8R,10aS,10bR,12aS)-8-hydroxy-8,12a-dimethyloctadecahydrochrysen-1-yl)methyl)benzamide] the figure was 100 to 1000 nM; with `Cn1ccc(C(=O)NC[C@H]2CCC[C@H]3[C@@H]4CC[C@@H]5C[C@](C)(O)CC[C@@H]5[C@H]4CC[C@]23C)n1` [Example 27, N-(((1S,4aS,4bR,6aR,8R,10aS,10bR,12aS)-8-hydroxy-8,12a-dimethyloctadecahydrochrysen-1-yl)methyl)-1-methyl-1H-pyrazole-3-carboxamide], 100 to 1000 nM; with `C[C@H](Nc1cccc(C#N)c1)[C@H]1CCC[C@H]2[C@@H]3CC[C@@H]4C[C@](C)(O)CC[C@@H]4C3CC[C@]12C` (stereo partly drawn) [Example 48, 3-(((1S)-1-((1S,4aS,4bR,6aR,8R,10aS,12aS)-8-hydroxy-8,12a-dimethyloctadecahydrochrysen-1-yl)ethyl)amino)benzonitrile], less than 100 nM.
